ChEMBL document CHEMBL4483862, “Open-source discovery of chemical leads for next-generation chemoprotective antimalarials” (2018)

Tested on: Plasmodium berghei
Test: Luciferase/luciferin-expressing antifolate-resistant parasites were used to infect a culture of HepG2 cells that were pre-incubated with compounds. Infected hepatocytes emit light due to the luciferase reaction. Assay results are presented as the percent inhibition of light emission compared to control. […]
Assay type: functional
Settings: sporozoite; for IC90: read-out: LUCIFERASE INFECTION ASSAY - IC90

For `Cc1ccc(S(=O)(=O)Nc2ccc(Nc3nccn4c(-c5cccc(OC(F)(F)F)c5)cnc34)cc2)cc1`, the IC50 (PBLUC_HILL_SLOPE 2.83, PBLUC_R_SQUARED 0.42, read-out: LUCIFERASE INFECTION ASSAY - IC50) was 3 µM and the IC90 was > 6.12 µM.
Compound `OC1CCC(Nc2ccn3nc(-c4cccc(OCc5ccccc5)c4)cc3n2)CC1` (configuration not stated) has an IC50 (PBLUC_HILL_SLOPE 2.85, PBLUC_R_SQUARED 0.208, read-out: LUCIFERASE INFECTION ASSAY - IC50) of 3.37 µM and an IC90 of 7.29 µM.
`CCc1c(C)[nH]c2c(-c3ccc(Cl)cc3)c(C)nn2c1=O` was tested, and the IC50 (PBLUC_HILL_SLOPE 2.9, PBLUC_R_SQUARED 0.859, read-out: LUCIFERASE INFECTION ASSAY - IC50) was 6.48 µM and the IC90 was > 10.9 µM.
For `CN1CCN(C(=O)c2cccc(-c3cnc4cnc(-c5cccc(Cl)c5)cn34)c2)CC1`, the IC50 (PBLUC_HILL_SLOPE 2.84, PBLUC_R_SQUARED 0.435, read-out: LUCIFERASE INFECTION ASSAY - IC50) was 4.45 µM and the IC90 was > 7.64 µM.
In the case of `COC(=O)c1sccc1NC(=O)N(C)Cc1ccc(C)cc1C`, the IC50 (PBLUC_HILL_SLOPE 2.81, PBLUC_R_SQUARED 0.305, read-out: LUCIFERASE INFECTION ASSAY - IC50) is reported as 6.58 µM and the IC90 is reported as > 10 µM.
`CCCc1c(C)[nH]c2[nH]n(-c3nc(C)cc(C)n3)c(=O)c2c1=O` was tested, and the IC50 (PBLUC_HILL_SLOPE 2.87, PBLUC_R_SQUARED 0.443, read-out: LUCIFERASE INFECTION ASSAY - IC50) was > 10.5 µM and the IC90 was > 10.5 µM.
With `CSc1[nH]nc(-c2cc(C(C)(C)C)oc2C)c1C#N` the IC50 (PBLUC_HILL_SLOPE 2.91, PBLUC_R_SQUARED 0.01, read-out: LUCIFERASE INFECTION ASSAY - IC50) was 8.62 µM and the IC90 was > 12 µM.
For `COc1cc(F)c(S(=O)(=O)N2CCCc3cc(F)cc(F)c32)cc1OC`, the IC50 (PBLUC_HILL_SLOPE 2.81, PBLUC_R_SQUARED 0.427, read-out: LUCIFERASE INFECTION ASSAY - IC50) was 6.52 µM and the IC90 was > 10 µM.
`O=c1[nH]c2ccccc2c(O)c1F` was tested, and the IC50 (PBLUC_HILL_SLOPE 2.84, PBLUC_R_SQUARED 0.833, read-out: LUCIFERASE INFECTION ASSAY - IC50) was 1.35 µM and the IC90 was 2.92 µM.
`CC(C)Cc1ccc(C(NC(=O)CCc2ccc(S(N)(=O)=O)cc2)c2cccs2)cc1` (configuration not stated) was tested, and the IC50 (PBLUC_HILL_SLOPE 2.82, PBLUC_R_SQUARED 0.609, read-out: LUCIFERASE INFECTION ASSAY - IC50) was 7.34 µM and the IC90 was > 10 µM.
In the case of `CC(C)(C)Nc1ccn2nc(-c3ccco3)cc2n1`, the IC50 (PBLUC_HILL_SLOPE 2.89, PBLUC_R_SQUARED 0.538, read-out: LUCIFERASE INFECTION ASSAY - IC50) is reported as 8.49 µM and the IC90 is reported as > 12.9 µM.
`Cc1nc2nc(C(F)(F)F)nn2c(C)c1CCC(=O)N1CCCC1c1ccc2c(c1)OCCCO2` (configuration not stated) gave an IC50 (PBLUC_HILL_SLOPE 2.87, PBLUC_R_SQUARED 0.605, read-out: LUCIFERASE INFECTION ASSAY - IC50) of 4.15 µM and an IC90 of 8.93 µM.
With `Cc1nn(-c2ccccc2Cl)c2sc(C(=O)NC3CCN(C(C)C)CC3)cc12` the IC50 (PBLUC_HILL_SLOPE 2.83, PBLUC_R_SQUARED 0.189, read-out: LUCIFERASE INFECTION ASSAY - IC50) was 5.04 µM and the IC90 was > 10 µM.
With `C=CC/N=c1\scc(-c2ccc(OC(F)F)cc2)n1/N=C/c1ccc(O)cc1O` the IC50 (PBLUC_HILL_SLOPE 2.81, PBLUC_R_SQUARED 0.0539, read-out: LUCIFERASE INFECTION ASSAY - IC50) was > 10 µM and the IC90 was > 10 µM.
With `O=S(=O)(/C=C/c1ccccc1)N1CCCC(c2nc3ccccc3s2)C1` (configuration not stated) the IC50 (PBLUC_HILL_SLOPE 2.87, PBLUC_R_SQUARED 0.652, read-out: LUCIFERASE INFECTION ASSAY - IC50) was > 10 µM and the IC90 was > 10 µM.
For `Cc1cc(Cl)ccc1OCCCc1nc2ccc(Cl)cc2[nH]1`, the IC50 (PBLUC_HILL_SLOPE 2.8, PBLUC_R_SQUARED 0.541, read-out: LUCIFERASE INFECTION ASSAY - IC50) was 7.39 µM and the IC90 was > 10 µM.
`CC(=O)Nc1ccc(Sc2cc(C)nc(C(C)C)n2)cc1` was tested, and the IC50 (PBLUC_HILL_SLOPE 2.86, PBLUC_R_SQUARED 0.342, read-out: LUCIFERASE INFECTION ASSAY - IC50) was 4.56 µM and the IC90 was 9.81 µM.
With `O=C(NC1CC1)c1ccc(CN(C2CC2)S(=O)(=O)c2ccc3c(c2)OCCCO3)cc1` the IC50 (PBLUC_HILL_SLOPE 2.85, PBLUC_R_SQUARED 0.458, read-out: LUCIFERASE INFECTION ASSAY - IC50) was 2.49 µM and the IC90 was 5.38 µM.
With `COC(=O)CCSc1c2ccc(Cl)cc2nc2ccc(OC)cc12` the IC50 (PBLUC_HILL_SLOPE 2.8, PBLUC_R_SQUARED 0.704, read-out: LUCIFERASE INFECTION ASSAY - IC50) was 0.207 µM and the IC90 was 0.454 µM.
With `CCCCCc1ccc(C(=O)Nc2nc3ccc(C)cn3c2C(=O)NCCCC)cc1` the IC50 (PBLUC_HILL_SLOPE 2.82, PBLUC_R_SQUARED 0.514, read-out: LUCIFERASE INFECTION ASSAY - IC50) was 4.14 µM and the IC90 was > 7.85 µM.
`CCC(CO)Nc1ccc2ncc(-c3ccc(OC)nc3)n2n1` (configuration not stated) gave an IC50 (PBLUC_HILL_SLOPE 2.84, PBLUC_R_SQUARED 0.538, read-out: LUCIFERASE INFECTION ASSAY - IC50) of 2.51 µM and an IC90 of 5.43 µM.
With `Cc1ccc(C(=O)Nc2nc(CC34CC5CC(CC(C5)C3)C4)cs2)s1` the IC50 (PBLUC_HILL_SLOPE 2.85, PBLUC_R_SQUARED 0.204, read-out: LUCIFERASE INFECTION ASSAY - IC50) was 6.66 µM and the IC90 was > 10 µM.
For `c1ccc(-c2cn3nc(NCc4cccs4)sc3n2)cc1`, the IC50 (PBLUC_HILL_SLOPE 2.88, PBLUC_R_SQUARED 0.313, read-out: LUCIFERASE INFECTION ASSAY - IC50) was 4.87 µM and the IC90 was > 10 µM.
In the case of `COc1ccc(Nc2nccc3c2cc(-c2cccc(OC)c2)n3C)cc1`, the IC50 (PBLUC_HILL_SLOPE 2.81, PBLUC_R_SQUARED 0.348, read-out: LUCIFERASE INFECTION ASSAY - IC50) is reported as 3.73 µM and the IC90 is reported as 8.15 µM.
In the case of `COc1cccc(Nc2nccc3nc(-c4cccc(OC(F)(F)F)c4)[nH]c23)c1`, the IC50 (PBLUC_HILL_SLOPE 2.87, PBLUC_R_SQUARED 0.483, read-out: LUCIFERASE INFECTION ASSAY - IC50) is reported as 5.1 µM and the IC90 is reported as > 10 µM.
`CCn1c2ccccc2c2cc(NC(C)C(=O)N3CCNC3=O)ccc21` (configuration not stated) was tested, and the IC50 (PBLUC_HILL_SLOPE 2.83, PBLUC_R_SQUARED 0.574, read-out: LUCIFERASE INFECTION ASSAY - IC50) was 2.06 µM and the IC90 was 4.48 µM.
In the case of `CCCc1cc(NCc2cccnc2)n2ncc(-c3ccccc3)c2n1`, the IC50 (PBLUC_HILL_SLOPE 2.86, PBLUC_R_SQUARED 0.143, read-out: LUCIFERASE INFECTION ASSAY - IC50) is reported as 6.97 µM and the IC90 is reported as > 9.61 µM.
`O=C(NNC(=O)c1cc2c(s1)CCC2)c1csc(COc2ccc(F)cc2)n1` gave an IC50 (PBLUC_HILL_SLOPE 2.84, PBLUC_R_SQUARED 0.402, read-out: LUCIFERASE INFECTION ASSAY - IC50) of 3.96 µM and an IC90 of 8.59 µM.
In the case of `CC(C)(C)C(=O)/C=c1\[nH]c(=O)/c(=C/c2cc(F)cc3c2OCOC3)s1`, the IC50 (PBLUC_HILL_SLOPE 2.84, PBLUC_R_SQUARED 0.665, read-out: LUCIFERASE INFECTION ASSAY - IC50) is reported as 6.37 µM and the IC90 is reported as > 10 µM.
In the case of `CN(C)C(=O)N1CCCC(C(=O)Nc2nc(-c3c(F)cccc3F)cs2)C1` (configuration not stated), the IC50 (PBLUC_HILL_SLOPE 2.82, PBLUC_R_SQUARED 0.52, read-out: LUCIFERASE INFECTION ASSAY - IC50) is reported as 5.62 µM and the IC90 is reported as > 10 µM.
`CNc1nc2cnc(Nc3cc(C(F)(F)F)ccc3F)cc2n1-c1ccccc1` was tested, and the IC50 (PBLUC_HILL_SLOPE 2.9, PBLUC_R_SQUARED 0.508, read-out: LUCIFERASE INFECTION ASSAY - IC50) was 6.14 µM and the IC90 was > 10 µM.
`Cn1ccnc1SCC(=O)N1N=C2/C(=C/c3ccccc3)CCCC2C1c1ccccc1` (configuration not stated) was tested, and the IC50 (PBLUC_HILL_SLOPE 2.84, PBLUC_R_SQUARED 0.326, read-out: LUCIFERASE INFECTION ASSAY - IC50) was 8.34 µM and the IC90 was > 10 µM.
For `C#CCSc1nnc(-c2ccc(C(C)(C)C)cc2)n1C`, the IC50 (PBLUC_HILL_SLOPE 2.86, PBLUC_R_SQUARED 0.337, read-out: LUCIFERASE INFECTION ASSAY - IC50) was 2.74 µM and the IC90 was 5.91 µM.
In the case of `O=C(Oc1ccc(Cl)cc1Cc1ccccc1)c1ccccc1-c1ccc(C(F)(F)F)cc1`, the IC50 (PBLUC_HILL_SLOPE 2.87, PBLUC_R_SQUARED 0.0345, read-out: LUCIFERASE INFECTION ASSAY - IC50) is reported as 8.61 µM and the IC90 is reported as > 10 µM.
`COc1cc(CCC2CCN(c3ccc4nnc(C(F)(F)F)n4n3)CC2)cc(OC)c1` was tested, and the IC50 (PBLUC_HILL_SLOPE 2.86, PBLUC_R_SQUARED 0.563, read-out: LUCIFERASE INFECTION ASSAY - IC50) was 5.92 µM and the IC90 was > 10 µM.
`CCN(CC)S(=O)(=O)c1ccc(N2CCOCC2)c(NC(=O)c2cc(-c3cc(OC)c(OC)c(OC)c3)nc3ccccc23)c1` gave an IC50 (PBLUC_HILL_SLOPE 2.9, PBLUC_R_SQUARED 0.79, read-out: LUCIFERASE INFECTION ASSAY - IC50) of 4.01 µM and an IC90 of 8.54 µM.
Work on `Cc1ccc(S(=O)(=O)Nc2ccc(C(=O)Nc3ccccc3O)cc2)cc1C` yielded an IC50 (PBLUC_HILL_SLOPE 2.83, PBLUC_R_SQUARED 0.529, read-out: LUCIFERASE INFECTION ASSAY - IC50) of 1.16 µM and an IC90 of 2.52 µM.
With `FC(F)(F)Oc1cccc(-c2ccc3ncc(-c4cccs4)n3n2)c1` the IC50 (PBLUC_HILL_SLOPE 2.85, PBLUC_R_SQUARED 0.222, read-out: LUCIFERASE INFECTION ASSAY - IC50) was 9.07 µM and the IC90 was > 10 µM.
`O=S(=O)(c1ccccc1)c1nc(/C=C/c2ccccc2)oc1NCc1ccco1` was tested, and the IC50 (PBLUC_HILL_SLOPE 2.89, PBLUC_R_SQUARED 0.0298, read-out: LUCIFERASE INFECTION ASSAY - IC50) was 5.62 µM and the IC90 was > 10 µM.
`N=c1c2ccccc2nnn1-c1ccc(C(F)(F)F)cc1` showed an IC50 (PBLUC_HILL_SLOPE 2.81, PBLUC_R_SQUARED 0.81, read-out: LUCIFERASE INFECTION ASSAY - IC50) of 3.32 µM and an IC90 of 7.24 µM.
Work on `O=C(NNc1cccc(F)n1)C(F)(F)F` yielded an IC50 (PBLUC_HILL_SLOPE 2.9, PBLUC_R_SQUARED 0.705, read-out: LUCIFERASE INFECTION ASSAY - IC50) of 0.174 µM and an IC90 of 0.37 µM.
